# According to publication PMC4418665, “Cyclization of the Urokinase Receptor-Derived Ser-Arg-Ser-Arg-Tyr Peptide Generates a Potent Inhibitor of Trans-Endothelial Migration of Monocytes” (PLoS ONE, 2015):
# Peptide text beside a SMILES is read from it.
# Columns and labels:
# FPR1 [1] = biological target: T1, FPR1 (Homo sapiens, UniProt P21462); experiment: Ligand binding assay, competition with FITC-fMLF at 4°C, RBL-2H3/ETFR cells; design: expressed in transfected cells; conditions: 100 nM peptide pre-incubated 60 min at 4°C, then 10 nM FITC-fMLF 60 min at 4°C; cell-associated fluorescence; triplicates
# T1 sequence (P21462 1-350): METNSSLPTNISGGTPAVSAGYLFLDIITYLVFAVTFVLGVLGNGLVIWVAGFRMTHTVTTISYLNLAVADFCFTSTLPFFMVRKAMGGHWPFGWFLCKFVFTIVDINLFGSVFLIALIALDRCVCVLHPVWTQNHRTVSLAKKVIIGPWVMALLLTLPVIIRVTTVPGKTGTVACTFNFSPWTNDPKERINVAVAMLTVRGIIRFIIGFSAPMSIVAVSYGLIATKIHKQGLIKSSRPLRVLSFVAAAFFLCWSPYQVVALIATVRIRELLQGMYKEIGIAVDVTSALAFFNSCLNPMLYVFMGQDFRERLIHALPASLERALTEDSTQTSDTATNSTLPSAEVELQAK
# Description: We have previously documented that SRSRY competes with the bacterial-derived N-formyl-methionyl-leucyl-phenylalanine peptide (fMLF) for binding to FPR type 1 (FPR1) and that both SRSRY and fMLF promote cell migration by triggering FPR1 internalization. […] Quantification of cell-associated fluorescence was assessed by reading cell lysates with a fluorescence plate reader. RBL-2H3 cells lack FPR1, thus they display very low uptake that was not saturable with unlabeled fMLF (Fig 2A). […] To evaluate the effect of [SRSRY] on agonist-dependent FPR1 internalization, binding experiments were performed at 37°C. […] Thus, we assessed whether [SRSRY] elicits effects on fMLF-directed cell migration. RBL-2H3/ETFR cell migration toward 10 nM fMLF was monitored in real-time for 4 hours as Cell Index changes due to the adhesion of migrating cells to microelectrodes using the xCELLigence RTCA technology as previously described. […]
# Fig 2 Both linear and cyclic SRSRY peptides bind to FPR1. […] Fluorimetric measurement of cell-associated fluorescence was assed using 485 nm excitation and 535 nm emission filters. Data are expressed as a percentage of the fluorescence associated to RBL-2H3 cells exposed to FITC-fMLF alone (CTL = 100%) and represent a mean ± SD from triplicates. *Statistical significance (t-test) against None with p<0.001. […] Cell migration of RBL-2H3/ETFR cells monitored by the xCELLigence system. […]
# FPR1 [2] = biological target: T1, FPR1; experiment: Ligand binding assay, competition with FITC-fMLF at 4°C, THP-1 cells; design: host or cells: THP-1 human monocytic leukemia cells; conditions: excess (100 nM) unlabeled peptide 60 min at 4°C, then 10 nM FITC-fMLF 60 min at 4°C; triplicates
# Description: Once documented that both SRSRY and [SRSRY] peptides compete with fMLF for binding to FPR1, we investigated the effect of [SRSRY] on the motility of monocytes. Preliminarily, we assessed whether [SRSRY] is a ligand of FPR1 on monocyte cell surface. […] (Fig 3A). When binding experiments were performed at 37°C, FPR1 appeared mainly localized within the cytoplasm, adjacent but outside the nucleus of THP-1 cells.
# Fig 3 The peptide [SRSRY] binds to FPR1 on THP-1 cell surface. A. THP-1 cells (1.5 x10^6 cells/sample) were pre-incubated with diluents (None), 100 nM fMLF, 100 nM SRSRY or 100 nM [SRSRY] peptides for 60 minutes at 4°C, then exposed to 10 nM N-formyl-Nle-Leu-Phe-Nle-Tyr-Lys-fluorescein (FITC-fMLF) for additional 60 minutes at 4°C. Fluorimetric measurement of cell-associated fluorescence was assed using 485 nm excitation and 535 nm emission filters. Data are expressed as a percentage of the fluorescence associated to THP-1 cells exposed to FITC-fMLF alone (None = 100%) and represent a mean ± SD from triplicates. *Statistical significance (t-test) against None with p<0.001. B. THP-1 cells incubated with diluents (None), 100 nM fMLF, 100 nM SRSRY or 100 nM [SRSRY] peptides for 30 minutes at 37°C and exposed to 10 nM FITC-fMLF for additional 30 minutes at 37°C. Scale bar: 5 μm. Original magnifications: 630x. […]
smiles,measurement,setting,value
"N=C(N)NCCC[C@@H]1NC(=O)[C@H](CO)NC(=O)[C@H](Cc2ccc(O)cc2)NC(=O)[C@H](CCCNC(=N)N)NC(=O)[C@H](CO)NC1=O [[SRSRY], [Ser-Arg-Ser-Arg-Tyr]] (cyclo(RSRYS))",binding of FITC-fMLF to RBL-2H3/ETFR cells,FPR1 [1],inhibits binding of fluorescent agonist to RBL-2H3/ETFR cells to a similar extent as compared to fMLF or SRSRY
same,binding of FITC-fMLF to THP-1 cells,FPR1 [2],dramatically reduced
"N=C(N)NCCC[C@H](NC(=O)[C@H](CO)NC(=O)[C@H](CCCNC(=N)N)NC(=O)[C@@H](N)CO)C(=O)N[C@@H](Cc1ccc(O)cc1)C(N)=O [SRSRY, H-Ser-Arg-Ser-Arg-Tyr-NH2] (H-SRSRY-NH2)",binding of FITC-fMLF to RBL-2H3/ETFR cells,FPR1 [1],reduced to the basal level
same,binding of FITC-fMLF to THP-1 cells,FPR1 [2],dramatically reduced
